Test results published in patent US20240208992A1, “MACROCYCLES AS CFTR MODULATORS” (Idorsia Pharmaceuticals Ltd, priority 2021, published 2024).

Molecular target: human F508del-CFTR (Homo sapiens, UniProt P13569, DEL508-508)
Assay: F508del-CFTR cell surface expression (corrector activity), DiscoveRx ß-galactosidase complementation chemiluminescence assay in recombinant U2OS cell line;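 further: U2OS cells co-expressing ProLink-tagged F508del-CFTR and a membrane-anchored enzyme acceptor, where more surface CFTR restores β-galactosidase activity measured by chemiluminescence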
Details: for EC50: EC50, F508del-CFTR cell surface expression
[1] = U2OS cells, 16h compound incubation, geomean values
[2] = U2OS, in relation to Emax of corrector lumacaftor (=100%), arithmetic mean values
[3] = U2OS cell line, 16h compound incubation, geomean values
[4] = U2OS, in relation to the Emax of the corrector lumacaftor (=100%), U2OS cell line, 16h compound incubation, arithmetic mean values

Sequence of human F508del-CFTR (P13569 with tags, fused parts or gaps DEL508-508): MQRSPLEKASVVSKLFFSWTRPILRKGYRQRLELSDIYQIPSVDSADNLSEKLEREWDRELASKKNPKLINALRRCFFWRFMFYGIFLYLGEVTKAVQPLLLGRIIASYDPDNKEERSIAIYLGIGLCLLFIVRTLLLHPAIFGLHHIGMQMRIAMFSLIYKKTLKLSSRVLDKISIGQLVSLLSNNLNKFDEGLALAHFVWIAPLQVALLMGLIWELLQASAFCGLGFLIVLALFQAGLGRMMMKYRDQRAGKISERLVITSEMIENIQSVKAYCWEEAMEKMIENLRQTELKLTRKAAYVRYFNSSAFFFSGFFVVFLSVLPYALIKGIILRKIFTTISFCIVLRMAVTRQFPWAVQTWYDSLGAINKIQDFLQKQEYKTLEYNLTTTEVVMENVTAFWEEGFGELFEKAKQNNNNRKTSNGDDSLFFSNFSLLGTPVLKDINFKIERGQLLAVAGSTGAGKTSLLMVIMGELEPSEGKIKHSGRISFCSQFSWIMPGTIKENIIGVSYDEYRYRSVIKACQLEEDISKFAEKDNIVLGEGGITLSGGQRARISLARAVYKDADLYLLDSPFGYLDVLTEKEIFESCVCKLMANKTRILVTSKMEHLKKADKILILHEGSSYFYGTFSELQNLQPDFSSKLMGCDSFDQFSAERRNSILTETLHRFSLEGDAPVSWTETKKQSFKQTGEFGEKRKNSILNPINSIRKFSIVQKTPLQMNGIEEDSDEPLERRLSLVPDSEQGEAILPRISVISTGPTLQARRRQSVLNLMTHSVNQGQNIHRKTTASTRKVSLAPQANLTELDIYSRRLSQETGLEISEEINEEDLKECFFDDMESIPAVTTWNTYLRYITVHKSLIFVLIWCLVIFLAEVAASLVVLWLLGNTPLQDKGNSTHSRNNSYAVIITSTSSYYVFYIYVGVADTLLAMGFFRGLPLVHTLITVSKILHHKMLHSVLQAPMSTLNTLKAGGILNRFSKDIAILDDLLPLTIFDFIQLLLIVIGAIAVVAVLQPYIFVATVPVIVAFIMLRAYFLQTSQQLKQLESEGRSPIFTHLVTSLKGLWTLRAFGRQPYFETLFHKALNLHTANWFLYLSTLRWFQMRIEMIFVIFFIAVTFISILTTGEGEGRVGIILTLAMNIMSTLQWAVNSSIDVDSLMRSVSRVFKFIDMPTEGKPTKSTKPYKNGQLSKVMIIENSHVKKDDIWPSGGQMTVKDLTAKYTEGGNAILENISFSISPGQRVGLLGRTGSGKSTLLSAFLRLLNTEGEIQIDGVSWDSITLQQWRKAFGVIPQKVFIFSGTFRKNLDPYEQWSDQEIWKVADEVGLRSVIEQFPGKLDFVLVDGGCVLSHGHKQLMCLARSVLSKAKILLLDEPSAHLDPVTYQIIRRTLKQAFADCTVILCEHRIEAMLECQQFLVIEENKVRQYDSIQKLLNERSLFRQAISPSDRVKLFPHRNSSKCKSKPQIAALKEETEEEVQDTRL

| Compound | EC50 [1] | Emax [2] | other results |
| --- | --- | --- | --- |
| CC(C)C[C@H]1C(=O)N(C)CC(=O)N[C@H](Cc2ccccc2)COc2cccc(OC(F)F)c2C(=O)N[C@H](C(=O)NCCc2ccc3c(c2)OCO3)CC(=O)N1C [Example 616, (3R,9S,13S)-N-(2-(benzo[d][1,3]dioxol-5-yl)ethyl)-3-benzyl-16-(difluoromethoxy)-9-isobutyl-7,10-dimethyl-5,8,11,15-tetraoxo-2,3,4,5,6,7,8,9,10,11,12,13,14,15-tetradecahydrobenzo[p][1]oxa[4,7,10,14]tetraazacycloheptadecine-13-carboxamide] | 581 nM | 92% | – |
| CC(C)C[C@H]1C(=O)N(C)[C@@H](CC2CCC(F)(F)CC2)C(=O)N[C@H](Cc2ccccc2)COc2cnc3ccc(F)cc3c2C(=O)N[C@H](C(=O)NCCc2noc(C3CC3)n2)CC(=O)N1C [Example 539, (3S,7S,10R,13R)-13-benzyl-N-(2-(5-cyclopropyl-1,2,4-oxadiazol-3-yl)ethyl)-10-((4,4-difluorocyclohexyl)methyl)-20-fluoro-7-isobutyl-6,9-dimethyl-1,5,8,11-tetraoxo-1,2,3,4,5,6,7,8,9,10,11,12,13,14-tetradecahydro-[1]oxa[4,7,10,14]tetraazacycloheptadecino[17,16-c]quinoline-3-carboxamide] | 95 nM | – | Emax (in relation to Emax of corrector lumacaftor (=100%), arithmetic mean values): 391% |
| CC(C)C[C@H]1C(=O)N2CCCC[C@@H]2C(=O)N[C@H](Cc2ccccc2)COc2cnc3ccccc3c2C(=O)N[C@H](C(=O)NCCc2cccc(-n3nccn3)c2)CC(=O)N1C [Example 461, (9S,13S,19aR,22R)-N-(3-(2H-1,2,3-triazol-2-yl)phenethyl)-22-benzyl-13-isobutyl-12-methyl-7,11,14,20-tetraoxo-7,8,9,10,11,12,13,14,17,18,19,19a,20,21,22,23-hexadecahydro-16H-pyrido[2′,1′:6,7][1]oxa[4,7,10,14]tetraazacycloheptadecino[17,16-c]quinoline-9-carboxamide] | 444 nM | 262% | – |
| COc1cccc(CCNC(=O)[C@@H]2CC(=O)N(C)[C@@H](CC(C)C)C(=O)N3CCCC[C@@H]3C(=O)N[C@H](Cc3ccccc3)COc3cnc4cccc(F)c4c3C(=O)N2)c1 [Example 535, (9S,13S,19aR,22R)-22-benzyl-6-fluoro-13-isobutyl-N-(3-methoxyphenethyl)-12-methyl-7,11,14,20-tetraoxo-7,8,9,10,11,12,13,14,17,18,19,19a,20,21,22,23-hexadecahydro-16H-pyrido[2′,1′:6,7][1]oxa[4,7,10,14]tetraazacycloheptadecino[17,16-c]quinoline-9-carboxamide] | 407 nM | 424% | – |
| CC(C)C[C@H]1C(=O)N2CC[C@H](c3ccccc3)C[C@@H]2C(=O)N[C@H](Cc2ccccc2)COc2cnc3ccccc3c2C(=O)N[C@H](C(=O)NCCc2cc(C3CC3)no2)CC(=O)N1C [Example 677, (9S,13S,19aR,22R)-22-benzyl-N-(2-(3-cyclopropylisoxazol-5-yl)ethyl)-13-isobutyl-12-methyl-7,11,14,20-tetraoxo-18-phenyl-7,8,9,10,11,12,13,14,17,18,19,19a,20,21,22,23-hexadecahydro-16H-pyrido[2′,1′:6,7][1]oxa[4,7,10,14]tetraazacycloheptadecino[17,16-c]quinoline-9-carboxamide] | 37 nM | 283% | – |
| COc1nccc2c1C(=O)N[C@H](C(=O)NCCc1noc(C3CC3)n1)CC(=O)N(C)[C@@H](CC(C)C)C(=O)N(C)[C@H](c1ccccc1)C(=O)N[C@H](Cc1ccccc1)CO2 [Example 681, (3R,6R,9S,13S)-3-benzyl-N-(2-(5-cyclopropyl-1,2,4-oxadiazol-3-yl)ethyl)-9-isobutyl-16-methoxy-7,10-dimethyl-5,8,11,15-tetraoxo-6-phenyl-2,3,4,5,6,7,8,9,10,11,12,13,14,15-tetradecahydropyrido[3,4-p][1]oxa[4,7,10,14]tetraazacycloheptadecine-13-carboxamide] | 447 nM | 313% | – |
| COc1cccc(CCNC(=O)[C@@H]2CC(=O)N(C)[C@@H](CC(C)C)C(=O)N3CCN(CC(C)C)C[C@@H]3C(=O)N[C@H](Cc3ccccc3)COc3cccc(OC)c3C(=O)N2)c1 [Example 612, (7S,11S,20R,22aR)-20-benzyl-2,7-diisobutyl-14-methoxy-N-(3-methoxyphenethyl)-8-methyl-6,9,13,22-tetraoxo-1,3,4,6,7,8,9,10,11,12,13,19,20,21,22,22a-hexadecahydro-2H-benzo[p]pyrazino[2,1-f][1]oxa[4,7,10,14]tetraazacycloheptadecine-11-carboxamide] | 148 nM | 298% | – |
| COc1cccc2c1C(=O)N[C@H](C(=O)NCCn1nc(C)cc1C)CC(=O)N(C)[C@@H](CC(C)C)C(=O)N(CCC1CCCCC1)CC(=O)N[C@H](Cc1ccccc1)CO2 [Example 209, (3R,9S,13S)-3-benzyl-7-(2-cyclohexylethyl)-N-(2-(3,5-dimethyl-1H-pyrazol-1-yl)ethyl)-9-isobutyl-16-methoxy-10-methyl-5,8,11,15-tetraoxo-2,3,4,5,6,7,8,9,10,11,12,13,14,15-tetradecahydrobenzo[p][1]oxa[4,7,10,14]tetraazacycloheptadecine-13-carboxamide] | – | – | EC50 [3]: 392 nM; Emax [4]: 118% |
| Cc1nc2ccc3c(c2o1)C(=O)N[C@H](C(=O)NCCc1ccc2c(c1)OCCO2)CC(=O)N(C)[C@@H](CC(C)C)C(=O)N1CCN(C2CC2)C[C@@H]1C(=O)N[C@H](Cc1ccccc1)CO3 [Example 421, (8S,12S,18aR,21R)-21-benzyl-17-cyclopropyl-N-(2-(2,3-dihydrobenzo[b][1,4]dioxin-6-yl)ethyl)-12-isobutyl-4,11-dimethyl-6,10,13,19-tetraoxo-6,7,8,9,10,11,12,13,16,17,18,18a,19,20,21,22-hexadecahydro-15H-oxazolo[4′,5′:5,6]benzo[1,2-p]pyrazino[2,1-f][1]oxa[4,7,10,14]tetraazacycloheptadecine-8-carboxamide] | 391 nM | 320% | – |
| Cc1cc2c3c(ccc2cn1)OC[C@@H](Cc1ccccc1)NC(=O)[C@@H](CC(F)(F)F)N(C)C(=O)[C@H](CC(C)C)N(C)C(=O)C[C@@H](C(=O)NCCc1nc(C2CC2)no1)NC3=O [Example 951, (3S,7S,10R,13R)-13-benzyl-N-(2-(3-cyclopropyl-1,2,4-oxadiazol-5-yl)ethyl)-7-isobutyl-6,9,20-trimethyl-1,5,8,11-tetraoxo-10-(2,2,2-trifluoroethyl)-1,2,3,4,5,6,7,8,9,10,11,12,13,14-tetradecahydro-[1]oxa[4,7,10,14]tetraazacycloheptadecino[16,17-f]isoquinoline-3-carboxamide] | – | – | EC50 (U2OS cells, 16h compound incubation, geomean of several measurements): 165 nM; Emax (U2OS, in relation to the Emax of the corrector lumacaftor (=100%), U2OS cells, 16h compound incubation, arithmetic mean): 405% |
| Cc1nc2ccc3c(c2o1)C(=O)N[C@H](C(=O)NCCc1ccc2c(c1)OCO2)CC(=O)N(C)[C@@H](CC(C)C)C(=O)N(CCC1CCCCC1)CC(=O)N[C@H](Cc1ccccc1)CO3 [Example 379, (8R,14S,18S)-N-(2-(benzo[d][1,3]dioxol-5-yl)ethyl)-8-benzyl-12-(2-cyclohexylethyl)-14-isobutyl-2,15-dimethyl-10,13,16,20-tetraoxo-7,8,9,10,11,12,13,14,15,16,17,18,19,20-tetradecahydrooxazolo[4′,5′:5,6]benzo[1,2-p][1]oxa[4,7,10,14]tetraazacycloheptadecine-18-carboxamide] | – | – | EC50 [3]: 76 nM; Emax [4]: 312% |
| COc1cccc2c1C(=O)N[C@H](C(=O)NCCc1ccc3c(c1)OCO3)CC(=O)N(C)[C@@H](CC1CC1)C(=O)N(CCC1CCCCC1)CC(=O)N[C@H](Cc1ccccc1)CO2 (mixture of isomers) [Example 274, (3R,9S,13RS)-N-(2-(benzo[d][1,3]dioxol-5-yl)ethyl)-3-benzyl-7-(2-cyclohexylethyl)-9-(cyclopropylmethyl)-16-methoxy-10-methyl-5,8,11,15-tetraoxo-2,3,4,5,6,7,8,9,10,11,12,13,14,15-tetradecahydrobenzo[p][1]oxa[4,7,10,14]tetraazacycloheptadecine-13-carboxamide] | – | – | EC50 [3]: 288 nM; Emax [4]: 186% |
| Cc1ccc2c(c1)OC[C@@H](Cc1ccccc1)NC(=O)CN(C)C(=O)[C@H](CC(C)C)N(C)C(=O)C[C@@H](C(=O)NCCc1ccc3c(c1)OCO3)NC2=O [Example 583, (3R,9S,13S)-N-(2-(benzo[d][1,3]dioxol-5-yl)ethyl)-3-benzyl-9-isobutyl-7,10,18-trimethyl-5,8,11,15-tetraoxo-2,3,4,5,6,7,8,9,10,11,12,13,14,15-tetradecahydrobenzo[p][1]oxa[4,7,10,14]tetraazacycloheptadecine-13-carboxamide] | 339 nM | 90% | – |
| COc1cc(OC)c2c(c1)OC[C@@H](Cc1ccccc1)NC(=O)CN(CCC1CCCCC1)C(=O)[C@H](CC(C)C)N(C)C(=O)C[C@@H](C(=O)NCCc1ccc3c(c1)OCCC3)NC2=O [Example 275, (3R,9S,13S)-3-benzyl-N-(2-(chroman-7-yl)ethyl)-7-(2-cyclohexylethyl)-9-isobutyl-16,18-dimethoxy-10-methyl-5,8,11,15-tetraoxo-2,3,4,5,6,7,8,9,10,11,12,13,14,15-tetradecahydrobenzo[p][1]oxa[4,7,10,14]tetraazacycloheptadecine-13-carboxamide] | – | – | EC50 [3]: 148 nM; Emax [4]: 333% |
| Cc1cc(CCNC(=O)[C@@H]2CC(=O)N(C)[C@@H](CC(C)C)C(=O)N3CCN(C(C)C)C[C@@H]3C(=O)N[C@H](Cc3ccccc3)COc3ccc4ccccc4c3C(=O)N2)on1 [Example 623, (4aR,7R,18S,22S)-7-benzyl-22-isobutyl-3-isopropyl-21-methyl-N-(2-(3-methylisoxazol-5-yl)ethyl)-5,16,20,23-tetraoxo-2,3,4,4a,5,6,7,8,16,17,18,19,20,21,22,23-hexadecahydro-1H-naphtho[1,2-p]pyrazino[2,1-f][1]oxa[4,7,10,14]tetraazacycloheptadecine-18-carboxamide] | 248 nM | 349% | – |
